Residue numbers refer to the chain shown, from its start. pKd: −log10 of the molar value. The source made the active and inactive calls. No cut-off for these calls is given here.
Experiments:
[1] = target: T1, 14-3-3 protein sigma (Homo sapiens) (UniProt P31947); details: BaF3, 1 uM
T1 sequence (whole entry): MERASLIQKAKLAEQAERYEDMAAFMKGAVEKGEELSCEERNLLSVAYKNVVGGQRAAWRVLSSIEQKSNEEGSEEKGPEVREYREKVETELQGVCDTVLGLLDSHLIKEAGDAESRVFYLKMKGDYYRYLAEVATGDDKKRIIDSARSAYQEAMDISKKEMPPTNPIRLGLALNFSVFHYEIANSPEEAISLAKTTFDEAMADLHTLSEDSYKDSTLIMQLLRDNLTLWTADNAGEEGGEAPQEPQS
Description: Inhibition of 14-3-3sigma in human Ba/F3 cells expressing wild type Bcr-Abl construct assessed as release of full-length c-Abl from cytoplasmic complex with 14-3-3sigma at 1 uM after 24 hrs by immunoprecipitation/immunoblot technique

[2] = target: T1, 14-3-3 protein sigma (Homo sapiens); experiment: Inhibition of 14-3-3sigma binding domain in human Ba/F3 cells expressing imatibib-resistant Bcr-Abl T315I mutant construct assessed as inhibition of 14-3-3sigma-c-Abl interaction; assay type: cell-based; details: BaF3
[3] = target: T1, 14-3-3 protein sigma (Homo sapiens); experiment: Inhibition of 14-3-3sigma binding domain in human Ba/F3 cells expressing imatibib-sensitive wild type Bcr-Abl construct assessed as inhibition of 14-3-3sigma-c-Abl interaction; assay type: cell-based; details: BaF3
14-3-3 protein sigma = target: T2, 14-3-3 protein sigma (Homo sapiens, UniProt P31947); experiment: Binding affinity to histidine-tagged human recombinant 14-3-3sigma by transferred NOESY analysis
T2 sequence (P31947 whole entry): T1 sequence (whole entry)

[4] = target: T1, 14-3-3 protein sigma (Homo sapiens); experiment: Inhibition of 14-3-3sigma in human Ba/F3 cells expressing imatinib-sensitive wild type Bcr-Abl construct assessed as release of full-length c-Abl from cytoplasmic complex with 14-3-3sigma at 5 uM after 24 hrs by immunoprecipitation/immunoblot technique; assay type: cell-based; details: BaF3
[5] = target: T1, 14-3-3 protein sigma (Homo sapiens); experiment: Inhibition of 14-3-3sigma in human Ba/F3 cells expressing imatinib-sensitive wild type Bcr-Abl construct assessed as cleaved c-Abl at mitochondrial membranes at 5 uM after 24 hrs by immunoprecipitation/immunoblot technique; assay type: cell-based; details: BaF3
[6] = target: T1, 14-3-3 protein sigma (Homo sapiens); experiment: Inhibition of 14-3-3sigma in human Ba/F3 cells expressing imatinib-sensitive wild type Bcr-Abl construct assessed as nuclear import of full-length c-Abl at 5 uM after 24 hrs by immunoprecipitation/immunoblot technique; assay type: cell-based; details: BaF3
[7] = target: T1, 14-3-3 protein sigma (Homo sapiens); experiment: Inhibition of 14-3-3sigma in human Ba/F3 cells expressing imatinib-sensitive wild type Bcr-Abl construct assessed as relocation of full-length c-Abl to mitochondrial membranes at 5 uM after 24 hrs by immunoprecipitation/immunoblot technique; assay type: cell-based; details: BaF3
[8] = target: T1, 14-3-3 protein sigma (Homo sapiens); experiment: Inhibition of 14-3-3sigma in human Ba/F3 cells expressing imatinib-sensitive wild type Bcr-Abl construct assessed as cell survival; assay type: cell-based; details: BaF3
[9] = target: T3, 14-3-3 protein sigma (Mus musculus) (UniProt O70456); experiment: Inhibition of 14-3-3sigma in mouse 32D cells expressing imatinib-sensitive wild type Bcr-Abl construct assessed as cell survival; assay type: cell-based
T3 sequence (whole entry): T1 sequence (whole entry) with G28S, R82K, Q93R, E110G, N234S, Q244E

For Cc1ccc(NC(=O)c2ccc(CN3CCN(C)CC3)cc2)cc1Nc1nccc(-c2cccnc2)n1, the inhibition [1] was “Active”.
Compound Cc1c(NC(=O)c2cc(C(=O)O)ccc2C(=O)O)c(=O)n(-c2ccccc2)n1C has an LD50 [2] of 1.47 µM and an LD50 [3] of 1.04 µM.
In the case of CCCCCCOC(=O)c1ccc(Nc2c([N+](=O)[O-])cc(C(=O)O)cc2[N+](=O)[O-])cc1, the pKd (14-3-3 protein sigma) was < 6.00, the inhibition [4] was “Active” and the LD50 [2] was 1.7 µM. For the same compound, the LD50 [3] was 1.41 µM, the inhibition [5] was “Active” and the inhibition [6] was “Active”. For the same compound, the inhibition [7] was “Active”.
For Cc1ccc(-c2cc(-c3ccccc3)nc(N/N=C/c3cc([N+](=O)[O-])ccc3O)n2)cc1, the LD50 [3] was 0.65 µM, the LD50 [8] was 0.65 µM and the LD50 [9] was 2.84 µM.

From ChEMBL document CHEMBL1909530, “Computational techniques are valuable tools for the discovery of protein-protein interaction inhibitors: the 14-3-3σ case” (Bioorg Med Chem Lett, 2011)
